{
  "source": "patent US8410124B2",
  "about": "“Deuterated etravirine” (Concert Pharmaceuticals Inc., priority 2007, dated 2013)",
  "origin": "cited, not measured here",
  "key": {"[1]": {"settings": "humans"}, "[2]": {"settings": "over a 2 hour period"}},
  "data": [
    {"molecule": "Cc1cc(C#N)cc(C)c1Oc1nc(Nc2ccc(C#N)cc2)nc(N)c1Br", "note": "[etravirine, 4-(6-amino-5-bromo-2-(4-cyanophenylamino)pyrimidin-4-yloxy)-3,5-dimethylbenzonitrile]", "values": [
      {"measurement": "excreted largely intact in the feces", "setting": "[1]; feces", "value": "> 85", "unit": "%"},
      {"measurement": "excreted largely intact in the urine", "setting": "[1]; urine", "value": "< 1", "unit": "%"},
      {"measurement": "degradation in human liver microsomes", "setting": "[2]", "value": 15, "unit": "%"},
      {"measurement": "most common adverse effects of the combined regimen", "setting": "healthy volunteers, etravirine in combination with lopinavir/ritonavir", "value": "diarrhea and headache"},
      {"measurement": "safety and tolerability profile", "setting": "phase IIb trials with treatment-experienced patients", "value": "generally comparable with placebo"},
      {"measurement": "mild side effects", "setting": "trials with HIV-1-infected patients dosed with etravirine", "value": "diarrhea, headache, abdominal pain, acute tonsillitis, flatulence, gastroenteritis, hot flushes, insomnia, intercostal pain, pruritus, somnolence, tachycardia and vomiting"}
    ]}
  ]
}
